# Values quoted from earlier work, collected in patent US7250518B2, “Nicotinamide acids, amides, and their mimetics active as inhibitors of PDE4 isozymes” (Pfizer Inc., priority 2001, dated 2007).
# Like-named read-outs stand apart in the source and are kept apart here.
# Assays:
# [1] = in vivo
# [2] = tested on: late reactions to inhaled allergen; conditions: 9.5 days oral, 15 and 30 mg, bronchial asthma patients
# [3] = tested on: high-affinity rolipram binding site (Sr)
# [4] = rat
# PDE4 in U937 cells = conditions: read-out: IC50 as PDE4 inhibitor in U937 cells
# [5] = tested on: antigen-induced eosinophilia; conditions: rat
# [6] = 54 subjects, doses up to 400 mg
# [7] = rat; remark: listed apart in the source
# rhinorrhea = conditions: antigen-challenged pig
# [8] = tested on: bronchoconstriction, BAL eosinophilia, AHR; conditions: in vivo
# guinea-pig lung PDE4 = conditions: read-out: IC50 against guinea-pig lung PDE4
# [9] = tested on: TNF release and lymphocyte proliferation; conditions: oral dose of 300 mg
# [10] = tested on: antigen-induced bronchoconstriction; conditions: guinea-pig
# TNF production = conditions: read-out: IC50 as an inhibitor of TNF production
# canine tracheal PDE4 = conditions: at 100 nM
# [11] = tested on: PDE4 derived from tumor cells; conditions: read-out: IC50 against a PDE4 derived from tumor cells
# [12] = tested on: histamine- and antigen-induced bronchoconstriction, eosinophilia, AHR; conditions: guinea-pig
# [13] = tested on: dextran sulfate induced colitis; conditions: rat
# rheumatoid arthritis = conditions: 35 patients, t.i.d., placebo-controlled
# [14] = tested on: antigen-induced lung eosinophilia, BAL eosinophilia, AHR; conditions: guinea-pig
# [15] = tested on: antigen-induced bronchospasm; conditions: rat
# [16] = tested on: keratomed psoriatic epidermis; conditions: over controls
# psoriatic lesions = conditions: two double-blind studies versus vehicle
# epidermal basal cells = conditions: primary culture
# [17] = tested on: in vitro guinea-pig models of asthma; conditions: read-out: IC50 in standard in vitro guinea-pig models of asthma
# [18] = COPD patients, 15 mg b.i.d., week 6
# [19] = oral 5, 10, and 15 mg b.id., week 2
# [20] = tested on: seratonin-induced bronchoconstriction; conditions: dog
# inflammatory parameters = conditions: topical, bilaterally over eight days, twenty patients
# [21] = tested on: lipopolysaccharide-induced bowel erythrocyte extravasation; conditions: rats, i.p. 3× pretreatment
# [22] = tested on: human peripheral blood mononuclear cells (HPBM); conditions: normal patients and subjects with atopic dermatitis
# [23] = tested on: lipopolysaccharide-induced mesenteric blood flow fall; conditions: inhibiting lipopolysaccharide-induced mesenteric blood flow fall
# [24] = tested on: bone mineral density of femurs; conditions: serial oral administrations
# TNF-α and IL-6 levels = conditions: 1 mg/kg/hr over 24 hours
# [25] = tested on: croton oil-induced ear inflammation; conditions: mouse
# [26] = tested on: collagen II induced arthritis
# [27] = tested on: chronic relapsing experimental allergic encephalomyelitis; conditions: SJL mice
# [28] = tested on: T-cell mediated hepatic failure
# [29] = tested on: experimental allergic encephalomyelitis; conditions: marmoset
# [30] = tested on: PHA stimulated normal PBMC; conditions: read-out: IC50, inhibition of PHA stimulated normal PBMC proliferation
# [31] = tested on: PHA stimulated atopic dermatitis PBMC; conditions: read-out: IC50, inhibition of PHA stimulated atopic dermatitis PBMC proliferation
smiles,measurement,setting,value
"O=C(Nc1c(Cl)cncc1Cl)C(=O)c1cn(Cc2ccc(F)cc2)c2ccc(O)cc12 [AWD-12,281]",Activity in a rat model of allergic rhinitis,allergic rhinitis,active
"Nc1nc2c([nH]1)c(=O)n(CC1CC1)c(=O)n2CC1CC1 [BRL-61,063]","Emesis, nausea and vomiting",[1],adverse events of nausea and vomiting
COc1ccc([C@H](Cc2ccncc2)c2ccccc2)cc1OC1CCCC1 [CDP840],Effect on late reactions to inhaled allergen,[2],suppression of late reactions to inhaled allergen
same,Affinity at the Sr,[3],comparatively low affinity
same,"Emesis, nausea and vomiting",[1],without any adverse events of nausea or headache
Cc1cc2c3c(c1)C(c1ccccc1)=N[C@@H](NC(=O)c1ccncc1)C(=O)N3CC2 [CI-1018],"ED50, oral potency",[4],5 mg/kg
same,IC50,PDE4 in U937 cells,1100 nM
same,Inhibition of antigen-induced eosinophilia,[5],active
same,Adverse events,[6],no adverse events
same,Oral bioavailability,[7],57%
"COc1ccc(C2CNC(=O)NC2)cc1O[C@H]1C[C@@H]2CC[C@H]1C2 [CP-80,633]",Affinity at the Sr,[3],high affinity
same,"Emesis, nausea and vomiting",[1],elicit emesis
CCCn1c(=O)c2c(C)nc(CC)n2c2nc(OC)ccc21 [Example D-22888],Effect on rhinorrhea,rhinorrhea,inhibit rhinorrhea
CCOc1cc2cc(CO)c(CO)c(-c3ccn(CCOC)c(=O)c3)c2cc1OCC [Example T-440],"Inhibition of early and late phase bronchoconstriction, BAL eosinophilia, ozone-induced AHR and airway epithelial injury",[8],activity
CCOc1cc2cc(CO)c(CO)c(-c3ccnc(-n4nc(-c5cccnc5)c5ccccc5c4=O)c3)c2cc1OCC [Example T-2585],IC50,guinea-pig lung PDE4,0.13 nM
CCNc1ncn(Cc2ccc(OC)c(OC3CCCC3)c2)c2nc(C(C)C)nc1-2 [Example V-11294A],Effect on LPS-stimulated ex vivo TNF release and PHA induced lymphocyte proliferation,[9],effective in reducing TNF levels and lymphocyte proliferation
same,Inhibition of antigen-induced bronchoconstriction,[10],active
COc1ccc(C(CC(N)=O)N2C(=O)c3ccccc3C2=O)cc1OC1CCCC1 (stereo not shown) [Formula (0.0.32)],IC50,PDE4; read-out: IC50 as an inhibitor of PDE4,0.042 nM
same,IC50,TNF production,130 nM
COc1ccc(-c2nc3cnccc3o2)c2c1OC1(CCCC1)C2 [Formula (0.0.48)],IC50,PDE4; read-out: IC50 as PDE4 inhibitor,2.5 nM
COc1ccc(C(=O)Cc2c(Cl)c[n+]([O-])cc2Cl)c2c1OCCCCO2 [Formula (0.0.49)],Inhibition of canine tracheal PDE4,canine tracheal PDE4,almost complete inhibition
Clc1nc2c(N3CCCC3)nc(N3CCNCC3)nc2nc1NCc1ccccc1 [Formula (0.0.55)],IC50,[11],16 nM
same,Concentrations inhibiting the growth of tumor cells,tumor cells,micromolar concentrations
O=c1c2[nH]cnc2c2cccnc2n1-c1ccccc1 [KF17625],"Inhibition of histamine- and antigen-induced bronchoconstriction, PAF- and antigen-induced eosinophilia, AHR, bronchospasm",[12],activity
O=c1c2c(ncn2Cc2cccnc2)c2cccnc2n1-c1ccccc1 [KF19514],"Inhibition of histamine- and antigen-induced bronchoconstriction, PAF- and antigen-induced eosinophilia, AHR, bronchospasm",[12],activity
CCCn1c(=O)c2[nH]cnc2n(-c2ccc(Cl)cc2)c1=O [LAS31025],Effect in dextran sulfate induced colitis,[13],beneficial effects comparable to prednisolone
CCCn1c(=O)c2[nH]cnc2n(-c2ccc(Cl)cc2)c1=O [LAS-31025],Inhibition of antigen-induced bronchoconstriction,[10],active
COc1ccc(C(=O)Nc2c(Cl)cncc2Cl)cc1OC1CCCC1 [RP73401],Clinical effect in rheumatoid arthritis,rheumatoid arthritis,positive trend towards clinical improvement
"COc1ccc(C(=O)Nc2c(Cl)cncc2Cl)cc1OC1CCCC1 [RP-73,401]","Inhibition of antigen-induced lung and BAL eosinophilia, EPO, PAF- and ozone-induced AHR, IL-5 induced pleural eosinophila",[14],active
same,Affinity at the Sr,[3],high affinity
same,"Emesis, nausea and vomiting",[1],elicit emesis
COc1ccc(CNc2c(C)noc2C)cc1OC1CCCC1 [RPR-132294],Inhibition of antigen-induced bronchospasm,[15],activity
"O=c1c2cccnc2n(-c2cccc([N+](=O)[O-])c2)c(=O)n1Cc1ccncc1 [RS-23,544]",Affinity at the Sr,[3],high affinity
same,"Emesis, nausea and vomiting",[1],elicit emesis
COc1ccc(CC2CNC(=O)N2)cc1OC1CCCC1 (stereo not shown) [Ro 20-1724],Increase in cAMP concentration,[16],1395%
same,Effect on psoriatic lesions,psoriatic lesions,improve psoriatic lesions without adverse systemic or cutaneous effects
same,Increase in cAMP concentrations,epidermal basal cells,three-fold
O=C(Nc1c(Cl)cncc1Cl)c1ccc(OC(F)F)c(OCC2CC2)c1 [Roflumilast],IC50,[17],3.5 nM
"COc1ccc([C@]2(C#N)CC[C@@H](C(=O)O)CC2)cc1OC1CCCC1 [SB-207,499]",Improvement in trough FEV1,[18],11%
same,Maximum mean difference in trough FEV1 compared with placebo,[18],160 mL
same,Affinity at the Sr,[3],comparatively low affinity
same,Change in trough FEV1 from placebo,[19],significant increases
COc1ccc(/C(C)=N/OC(N)=O)cc1OC1CCCC1 [WAY-PDA-641],Inhibition of seratonin-induced bronchoconstriction,[20],active
COc1ccc(C2CNC(=O)NC2)cc1O[C@H]1C[C@@H]2CC[C@H]1C2 [atizoram],Effect on inflammatory parameters,inflammatory parameters,effectively inhibit all of the inflammatory parameters tested
CCCCn1c(=O)c2c(ncn2CC(C)=O)n(CCCC)c1=O [debufylline],Effect on lipopolysaccharide-induced bowel erythrocyte extravasation,[21],reduces
CCCCn1c(=O)c2c(ncn2CC(C)=O)n(CCCC)c1=O [denbufylline],Inhibition of the proliferation of HPBM,[22],concentration-related inhibition
same,Potency relative to pentoxifylline,[23],100 fold
same,Effect on bone mineral density of femurs,[24],inhibit the decrease in the bone mineral density
CC(=O)CCCCn1c(=O)c2c(ncn2C)n(C)c1=O [pentoxifylline],Effect on lipopolysaccharide-induced bowel erythrocyte extravasation,[21],reduces
same,IL-6 levels,TNF-α and IL-6 levels,significantly increased
same,TNF-α levels,TNF-α and IL-6 levels,significantly lowered
COc1ccc(C2CNC(=O)C2)cc1OC1CCCC1 (stereo not shown) [rolipram],Topical dose inhibiting croton oil-induced ear inflammation,[25],≥ 0.03 mg per ear
same,Effect on lipopolysaccharide-induced bowel erythrocyte extravasation,[21],reduces
same,Inhibition of the proliferation of HPBM,[22],concentration-related inhibition
same,Effect on appearance of arthritic symptoms,[26]; 2 mg/kg twice daily for five days before onset of arthritis,significantly delayed the appearance of arthritic symptoms
same,Effect on development of the disease,[26]; 3 mg/kg twice daily when arthritis was apparent,progression of severity was halted
same,Effect on clinical signs and pathological changes,[27],ameliorates clinical signs and pathological changes
same,Effect in dextran sulfate induced colitis,[13],beneficial effects comparable to prednisolone
same,IL-10 levels,[28]; 0.1 to 10 mg/kg i.p.,significantly elevates
same,"Plasma activities of liver enzymes ALT, AST, and SDH",[28]; 0.1 to 10 mg/kg i.p.,dose-dependently inhibited
same,Plasma TNF-α and INF-γ concentrations,[28]; 0.1 to 10 mg/kg i.p. 30 minutes before concanavalin A or staphylococcal enterotoxin B,significantly reduce
same,Effect on clinical signs,[29],suppress the appearance of clinical signs
same,IC50,[30],2600 nM
same,IC50,[31],280 nM
